Experimental data reported in patent US9555137B2, “Uses of labeled HSP90 inhibitors” (Sloan-Kettering Institute for Cancer Research, priority 2011, dated 2017).

What was measured:
HSP90 = test: 131I-PU-H71 saturation binding in intact cancer cells; type: cell-based
Source text: The solutions were shaken in an orbital shaker and after 1 hr the cells were isolated and washed with ice cold Tris-buffered saline using a Brandel cell harvester. […] To calculate the percentage of HSP90, cellular HSP90 expression was quantified by using standard curves created of recombinant HSP90 purified from HeLa cells (Stressgen#ADI-SPP-770).

[1] = test system: breast cancer tumor specimens; test: ex vivo sensitivity of breast cancer fresh tissue sections to PU-H71; type: cell-based, human; conditions: TNBC resistant (PT#14)
Source text: From preliminary analyses we have learned that fresh tissue slicing provides a quick and more efficient ex vivo method for HSP90 inhibition evaluation than primary cell isolation. In addition, it preserves the cancer cells in the endogenous environment of the surrounding tissue. This is important since the interaction between stromal cells and tumor cells is known to play a major role in cancer growth and progression. In this method, the tissue (i.e. lesion) is placed in a plastic mold and embedded in 6% agarose. The agarose-embedded tissue is then mounted on the stage of the Vibratome that is submersed in a chilled reservoir (for tissue preservation) containing MEM with 1% penicillin/streptomycin. The tissue is then sliced using metal blades producing serial sections of the lesion that are 200 μm thick. Each section (minus the surrounding agarose-embedding media) is immediately placed in a 24-well tissue culture plate containing MEM with 1% penicillin/streptomycin. From a 5 mm×5 mm piece of tissue approximately 25 sections are produced. This allows for replicate analyses of tissue sections treated with a minimum of 4 doses of the HSP90 inhibitor and one with vehicle only. Replicates can be assayed by both IHC as well as viability assays (automatic plate reader or cytospin preparation) once tissue section undergoes enzymatic dissociation by brief exposure to dispase. […]

p-AKT, p-STAT5 = test: pharmacodynamic study in M0-91 tumors xenografted in mice; type: in vivo
Procedure: We next analyzed the pharmacodynamic effects of HSP90 inhibition in both HEL and M0-91 tumors xenografted in mice. Unlike the cultured cells, the use of the in vivo model allows real-time monitoring of HSP90-dependent pathways inhibition.
Four- to 6-week-old nu/nu athymic female mice were obtained from Taconic Farms. Experiments were carried out under an Institutional Animal Care and Use Committee-approved protocol, and institutional guidelines for the proper and humane use of animals in research were followed. HEL and M0-91 cells were subcutaneously implanted in the right flank of mice using a 20-gauge needle and allowed to grow. […] For this assay, tumors were allowed to reach 6-8 mm in diameter before treatment. […] Tumors were homogenized and proteins analyzed by western blot as described above.

MDA-MB-468 tumors = test: efficacy study in MDA-MB-468 xenografted tumors; type: in vivo, mice; conditions: 75 mg/kg, 1× week
Procedure: Mice (n=5) bearing MDA-MB-468 tumors reaching a volume of 100-150 mm^3 were treated i.p. (i.p.) using different doses and schedules, as indicated. Tumor volume was determined by measurement with Vernier calipers, and tumor volume was calculated as the product of its length×width^2×0.4. Tumor volume was expressed on indicated days as the median tumor volume ±SD indicated for groups of mice. Percent (%) tumor growth inhibition values were measured on the final day of study for drug-treated compared with vehicle treated mice and are calculated as 100×{1−[(TreatedFinal day−TreatedDay 1)/(ControlFinal day−ControlDay 1)]}. Tumor regression values were determined by calculating the ratio of median tumor volumes at the time when treatment was initiated to median tumor volume on the final day of study for a given treatment group. Percent (%) tumor regression is 100×[1−(TreatedFinal day/TreatedDay 1)].

359 kinases = test: scanMAX kinase screen (Ambit); type: binding; conditions: 10 μM
Raf-1, Akt [2] = test: onco-client protein degradation in MDA-MB-468 cells (Western blot); type: cell-based; conditions: Homo sapiens, in vitro, 24 h
Raf-1, Akt [3] = test: pharmacodynamic analysis of MDA-MB-468 tumors (Western blot); type: in vivo, mice; conditions: Mus musculus, MDA-MB-468, 24 h
[4] = PU-H71 tumor concentrations in MDA-MB-468 tumor-bearing mice (PET-predicted, simulated, LC-MS/MS); conditions: 75 mg/kg 1× week
caspase-3,7 = test: caspase 3,7 activation assay in AML cell lines; type: cell-based; conditions: 24 h
Procedure: A ten-fold, in MOLM-13 and M0-91, and two-fold, in Kasumi-1 and SKNO-1, increase in caspase-3,7 activation was observed as early as 24 h. Essentially no live cells were detected for the M0-91 cell line after 48 h of HSP90 inhibitor treatment. In the most sensitive cells, MOLM-13 and M0-91, apoptosis was associated with downregulation of the anti-apoptotic molecule Bcl-xL.
Cells were plated and treated as described in the growth inhibition assay section. Following a 24 h or 48 h exposure of cells to Hsp90 inhibitors, 100 μL buffer containing 10 mM Hepes, pH 7.5, 2 mM EDTA, 0.1% CHAPS, 0.1 mg/mL PMSF, Complete Protease Inhibitor mix (#1697498; Roche), and the caspase substrate Z-DEVD-R110 (#R22120; Molecular Probes) at 25 μM was added to each well. Plates were placed on an orbital shaker to promote cell lysis and reaction. The fluorescence signal of each well was measured in an Analyst GT (Molecular Dev ices) microplate reader (excitation 485 nm; emission at 530 nm). The percentage increase in caspase-3,7 activity was calculated by comparison of the fluorescence reading obtained from treated versus control cells. All experimental data were analyzed using SOFTmax Pro 4.3.1 and plotted using Prism 4.0 (Graphpad Software Inc., San Diego, Calif.).

MDA-MB-468 cells = test: apoptosis of MDA-MB-468 cells (Ethidium Bromide/Acridine Orange); type: cell-based, human; conditions: 48 h
Source text: As noted in FIG. 40B, several tumors are more sensitive to HSP90 inhibition than predicted from the preliminary data generated on cell lines.

[5] = [124I]-PU-H71 PET in cancer patients, tumor exposure to PU-H71; type: in vivo, human
[6] = mouse, in vivo
in vivo = conditions: mouse

With CC(C)NCCCn1c(Sc2cc3c(cc2I)OCO3)nc2c(N)ncnc21 [PU-H71] the “fraction of total cellular HSP90 bound” value (HSP90; K562 and other established t(9;22)+ CML cell lines) was 10.3-23%, the “fraction of total cellular HSP90 bound” value (HSP90; MDA-MB-468 cells) was “approximately 30%” and the apoptosis [1] was “no apoptosis noted at any of the tested concentrations”. The “duration of apoptosis after one dose” value (p-AKT, p-STAT5) was 96 h, the anti-tumor effect (MDA-MB-468 tumors) was “significant tumor growth inhibition” and the kinase hits (359 kinases) was “Only SNARK (NUAK family SNF1-like kinase 2)”. For the same compound, the EC50 (Raf-1, Akt [2]; read-out: EC50 Akt, onco-client protein degradation) was 150 ± 20 nM, the EC50 (Raf-1, Akt [2]; read-out: EC50 Raf-1, onco-client protein degradation) was 130 ± 20 nM and the EC50 (Raf-1, Akt [3]; read-out: EC50 Akt, tumor concentration by PET vs pharmacodynamic effect) was 90 ± 80 nM. The EC50 (Raf-1, Akt [3]; read-out: EC50 Raf-1, tumor concentration by PET vs pharmacodynamic effect) was 240 ± 30 nM, the “actual tumor concentration by LC-MS/MS” value ([4]; 24 h after last dose) was 5.53±0.26 and the “actual tumor concentration by LC-MS/MS” value ([4]; 96 h after last dose) was 3.09±1.40. For the same compound, the “increase in caspase-3,7 activation” value (caspase-3,7; Kasumi-1 and SKNO-1) was “two-fold”, the “increase in caspase-3,7 activation” value (caspase-3,7; MOLM-13 and M0-91) was “ten-fold” and the cells undergoing apoptosis (MDA-MB-468 cells; 0.5 μM) was “about 50%”. The cells undergoing apoptosis (MDA-MB-468 cells; about 5 μM) was “about 100%”, the “tumor AUC0-336h” value ([5]; 10 mg/m^2 once a week for two weeks) was 54 μM-h and the tumor exposure ([5]; left lung, 80 mg/m2 2× week) was “above 760 uM-h”. For the same compound, the “AUC tumor relative to AUC blood” value [6] was 15 fold, the “area under the blood time-activity concentration curve” value [6] was 0.78 % ID/g-h and the “area under the tumor time-activity concentration curve” value [6] was 11.4 % ID/g-h. The concentration at 24 h (in vivo; in vivo, 5 mg/kg) was 430 nM, the concentration at 24 h (in vivo; tumor, 5 mg/kg) was 370 nM and the concentration at 24 h (in vivo; tumor, 25 mg/kg) was 1830 nM. For the same compound, the concentration at 24 h (in vivo; tumor, 50 mg/kg) was 3670 nM, the concentration at 48 h (in vivo; tumor, 75 mg/kg) was 3500 ± 270 nM and the concentration at 96 h (in vivo; tumor, 75 mg/kg) was 1290 ± 290 nM. It also gave a concentration at 120 h (in vivo; tumor, 75 mg/kg) of 690 ± 250 nM.
